Key:
Experiment in all cases: UV/vis and transient absorption of co-purified protein-bound FAD
Assay type in all cases: binding
Conditions in all cases: pH 8.0, 10 mM Tris-HCl, 100 mM NaCl, 10% glycerol, 7 °C; oxidized FAD; free FAD removed by size-exclusion column
[1] = target: T1, MmCPDII (class II CPD photolyase) (Methanosarcina mazei, UniProt Q8PYK9)
T1 construct: gene MM_0852; full-length from pET-28a-MmCPDII, E. coli BL21-Gold(DE3), NiNTA and SEC

[2] = target: T2, MmCPDII (class II CPD photolyase) (Methanosarcina mazei, UniProt Q8PYK9, W388F)
T2 construct: gene MM_0852; full-length from pET-28a-MmCPDII, E. coli BL21-Gold(DE3), NiNTA and SEC

[3] = target: T3, MmCPDII (class II CPD photolyase) (Methanosarcina mazei, UniProt Q8PYK9, Y345F)
T3 construct: gene MM_0852; full-length from pET-28a-MmCPDII, E. coli BL21-Gold(DE3), NiNTA and SEC

[4] = target: T4, MmCPDII (class II CPD photolyase) (Methanosarcina mazei, UniProt Q8PYK9, E387Q)
T4 construct: gene MM_0852; full-length from pET-28a-MmCPDII, E. coli BL21-Gold(DE3), NiNTA and SEC

For `Cc1cc2nc3c(=O)[nH]c(=O)nc-3n(C[C@H](O)[C@H](O)[C@H](O)COP(=O)(O)OP(=O)(O)OC[C@H]3O[C@@H](n4cnc5c(N)ncnc54)[C@H](O)[C@@H]3O)c2cc1C` [FAD], the “UV/vis and transient absorption of co-purified protein-bound FAD” value [1] was “Isolated MmCPDII photolyase (WT, as well as all mutants studied here) contains a fully oxidized FAD”, the “UV/vis and transient absorption of co-purified protein-bound FAD” value [2] was “Isolated MmCPDII photolyase (WT, as well as all mutants studied here) contains a fully oxidized FAD” and the “UV/vis and transient absorption of co-purified protein-bound FAD” value [3] was “Isolated MmCPDII photolyase (WT, as well as all mutants studied here) contains a fully oxidized FAD”. The “UV/vis and transient absorption of co-purified protein-bound FAD” value [4] was “Isolated MmCPDII photolyase (WT, as well as all mutants studied here) contains a fully oxidized FAD”.

— article PMC5885780, “Sub-nanosecond tryptophan radical deprotonation mediated by a protein-bound water cluster in class II DNA photolyases” (Chemical Science, 2017)
